For assay [1], the system named is HCC70. The assay can be described thus: cells. The settings on record: Homo sapiens, HCC70, 48 h, read-out: III / CEY1410.
Assay [2] has as its system HS578T. The assay can be described thus: cells. To be noted: Homo sapiens, Hs-578T, 48 h, read-out: III / CEY1410.
Assay [3] relates to MDAMB468. The assay can be described thus: cells. To be noted: Homo sapiens, MDA-MB-468, 48 h, read-out: III / CEY1410.
Assay [4] deals with MDAMB436. The assay can be described thus: cells. The settings on record: Homo sapiens, MDA-MB-436, 48 h.
Assay [5] deals with T47D. The assay can be described thus: cells. The settings on record: Homo sapiens, T47D, 48 h, read-out: III / CEY1410.
Assay [6] deals with SKBR3. The assay can be described thus: cells. The settings on record: Homo sapiens, SK-BR-3, 48 h, read-out: III / CEY1410.
The subject of assay [7] is HCC1143. The assay can be described thus: cells. The settings on record: Homo sapiens, HCC1143, 48 h, read-out: III / CEY1410.
The subject of assay [8] is BT20. The assay can be described thus: cells. The settings on record: Homo sapiens, BT-20, 48 h, read-out: III / CEY1410.
The test system of assay [9] is MCF7. The assay can be described thus: cells. The settings on record: Homo sapiens, MCF7, 48 h.
Assay [10] deals with HCC1569. The assay can be described thus: cells. The settings on record: Homo sapiens, HCC1569, 48 h.
In assay [11] the test system is MDAMB231. The assay can be described thus: cells. To be noted: Homo sapiens, MDA-MB-231, 48 h, read-out: III / CEY1410.
The subject of assay [12] is HCC1419. The assay can be described thus: cells. To be noted: Homo sapiens, HCC1419, 48 h.
The subject of assay [13] is HCC1937. The assay can be described thus: cells. To be noted: Homo sapiens, HCC1937, 48 h, read-out: III / CEY1410.
The subject of assay [14] is HCC1954. The assay can be described thus: cells. To be noted: Homo sapiens, HCC1954, 48 h.
Assay [15] deals with BT474. The assay can be described thus: cells. To be noted: Homo sapiens, BT-474, 48 h.
Assay [16] deals with MDAMB361. The assay can be described thus: cells. To be noted: Homo sapiens, MDA-MB-361, 48 h, read-out: III / CEY1410.
Assay [17] deals with MDAMB453. The assay can be described thus: cells. The settings on record: Homo sapiens, MDA-MB-453, 48 h, read-out: III / CEY1410.
Assay [18] relates to DU4475. The assay can be described thus: cells. The settings on record: Homo sapiens, DU-4475, 48 h, read-out: III / CEY1410.
Assay [19] addresses ALDH1A3 (Homo sapiens, UniProt P47895). The assay can be described thus: HPLC retinaldehyde dehydrogenase assay. Format: biochemical.
The subject of assay [20] is MAXFTN 508. The assay can be described thus: cells. To be noted: read-out: DIMATE.
Assay [21] has as its system MAXFTN 449. The assay can be described thus: cells. The settings on record: read-out: DIMATE.
Assay [22] has as its system MAXFHER 2690. The assay can be described thus: cells. The settings on record: read-out: DIMATE.
The test system of assay [23] is MAXFTN 1384. The assay can be described thus: cells. The settings on record: read-out: DIMATE.
In assay [24] the test system is MAXFTN 2990. The assay can be described thus: cells. To be noted: read-out: DIMATE.
In assay [25] the test system is MAXFHER 4035. The assay can be described thus: cells. The settings on record: read-out: DIMATE.
Assay [26] relates to MAXFHER 1162. The assay can be described thus: cells. The settings on record: read-out: DIMATE.
For assay [27], the system named is MAXFTN 401. The assay can be described thus: cells. The settings on record: read-out: DIMATE.
Assay [28] has as its system MAXFHER BR64. The assay can be described thus: cells. To be noted: read-out: DIMATE.
Assay [29] concerns MAXFTN BR120. The assay can be described thus: cells. To be noted: read-out: DIMATE.
For assay [30], the target named is ALDH1A2 (Homo sapiens, UniProt O94788). The assay can be described thus: HPLC retinaldehyde dehydrogenase assay. Format: biochemical.
Assay [31] deals with ALDH1A1 (Homo sapiens, UniProt P00352). The assay can be described thus: HPLC retinaldehyde dehydrogenase assay. Format: biochemical.
Assay [32] has as its target ALDH3A1 (Homo sapiens, UniProt P30838). The assay can be described thus: fluorimetric NADPH assay, global inhibition fit. Format: biochemical. To be noted: non-competitive; 4-nitrobenzaldehyde substrate, 1 mM NADP+, 37 °C, pH 7.2.

Like-named read-outs stand apart in the source and are kept apart here.

Sequence of ALDH1A1 (P00352 whole entry): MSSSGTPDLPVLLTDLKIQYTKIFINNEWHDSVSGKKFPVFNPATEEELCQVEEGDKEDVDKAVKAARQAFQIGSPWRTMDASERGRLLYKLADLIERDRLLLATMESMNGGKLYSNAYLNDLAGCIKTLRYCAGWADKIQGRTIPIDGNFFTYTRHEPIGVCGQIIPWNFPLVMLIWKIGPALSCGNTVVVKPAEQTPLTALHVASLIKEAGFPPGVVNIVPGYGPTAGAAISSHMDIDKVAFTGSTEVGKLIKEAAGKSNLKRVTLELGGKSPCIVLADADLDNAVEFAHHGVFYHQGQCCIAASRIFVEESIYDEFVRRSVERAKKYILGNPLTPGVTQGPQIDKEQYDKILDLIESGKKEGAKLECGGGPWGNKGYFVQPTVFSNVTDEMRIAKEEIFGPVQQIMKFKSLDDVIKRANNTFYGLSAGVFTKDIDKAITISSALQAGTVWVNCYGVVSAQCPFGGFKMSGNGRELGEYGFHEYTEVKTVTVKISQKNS
Sequence of ALDH1A2 (O94788 whole entry): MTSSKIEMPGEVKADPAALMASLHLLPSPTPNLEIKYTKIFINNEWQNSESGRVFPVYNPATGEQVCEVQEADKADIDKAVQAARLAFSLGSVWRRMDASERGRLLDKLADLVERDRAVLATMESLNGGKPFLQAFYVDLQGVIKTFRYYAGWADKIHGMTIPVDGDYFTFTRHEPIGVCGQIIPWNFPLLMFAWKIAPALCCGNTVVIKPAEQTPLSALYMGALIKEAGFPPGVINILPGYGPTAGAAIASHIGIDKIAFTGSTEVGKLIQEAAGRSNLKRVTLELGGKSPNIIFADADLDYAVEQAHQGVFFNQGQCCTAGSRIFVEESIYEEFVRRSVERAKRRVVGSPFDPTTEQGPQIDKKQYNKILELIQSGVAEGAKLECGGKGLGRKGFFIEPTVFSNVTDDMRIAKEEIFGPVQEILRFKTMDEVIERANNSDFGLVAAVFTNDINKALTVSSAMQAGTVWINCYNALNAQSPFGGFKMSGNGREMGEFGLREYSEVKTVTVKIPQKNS
Sequence of ALDH1A3 (P47895 whole entry): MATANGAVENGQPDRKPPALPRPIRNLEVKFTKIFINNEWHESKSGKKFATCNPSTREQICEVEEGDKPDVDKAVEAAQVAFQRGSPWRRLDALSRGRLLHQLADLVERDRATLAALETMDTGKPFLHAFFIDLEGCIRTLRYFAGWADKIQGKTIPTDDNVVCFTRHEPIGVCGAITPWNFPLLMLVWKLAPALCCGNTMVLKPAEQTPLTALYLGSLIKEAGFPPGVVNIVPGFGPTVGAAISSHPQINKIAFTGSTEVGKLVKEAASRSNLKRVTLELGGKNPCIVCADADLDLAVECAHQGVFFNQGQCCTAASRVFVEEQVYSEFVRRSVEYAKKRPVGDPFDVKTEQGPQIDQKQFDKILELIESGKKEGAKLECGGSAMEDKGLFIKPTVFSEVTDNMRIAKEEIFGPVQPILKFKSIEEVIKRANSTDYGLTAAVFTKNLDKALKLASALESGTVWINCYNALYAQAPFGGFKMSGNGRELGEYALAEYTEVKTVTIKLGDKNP
Sequence of ALDH3A1 (P30838 whole entry): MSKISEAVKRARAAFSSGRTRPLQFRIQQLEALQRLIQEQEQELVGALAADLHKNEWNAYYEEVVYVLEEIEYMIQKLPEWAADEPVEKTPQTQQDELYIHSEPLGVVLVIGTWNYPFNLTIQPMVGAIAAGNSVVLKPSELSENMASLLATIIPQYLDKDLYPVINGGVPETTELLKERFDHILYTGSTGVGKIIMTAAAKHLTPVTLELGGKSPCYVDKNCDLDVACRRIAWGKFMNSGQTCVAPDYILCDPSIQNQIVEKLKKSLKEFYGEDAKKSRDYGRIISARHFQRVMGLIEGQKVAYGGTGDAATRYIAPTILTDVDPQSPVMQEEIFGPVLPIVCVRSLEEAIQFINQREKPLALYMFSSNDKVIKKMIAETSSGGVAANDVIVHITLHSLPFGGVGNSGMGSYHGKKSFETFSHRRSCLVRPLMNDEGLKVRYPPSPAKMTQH

For `CN(C)C(C)(C)C#CC(=O)O` [CEY1410], the GI50 in [1], in [2], in assay [3], in assay [4] (read-out: III / CEY1410), in assay [5] and in [6] was more than 30 µM in each case. Besides, the GI50 in assay [7], in assay [8], in [9] (read-out: III / CEY1410), in assay [10] (read-out: III / CEY1410), in assay [11] and in assay [12] (read-out: III / CEY1410) was more than 30 µM in each case. Also, the GI50 in [13], in [14] (read-out: III / CEY1410), in [15] (read-out: III / CEY1410), in assay [16], in [17] and in assay [18] was more than 30 µM throughout.

By IC50 is commonly meant the point on the concentration scale where inhibition reaches its midpoint. For `CSC(=O)C#CC(C)(C)N(C)C` [DIMATE, 4-dimethylamino-4-methyl-pent-2-ynthioic acid-S-methyl ester], the results for the IC50 in [19], in [30] and in [31] were 5.7 ± 0.5 µM, 6.4 ± 0.9 µM and 25 ± 2 µM, respectively. The GI50 was 1.11 µM in [20]; 0.46 µM in assay [21]; 2.65 µM in assay [22]; 7.32 µM in assay [23]; 4.29 µM in [24]; 2.55 µM in assay [25]. The GI50 in assay [26] turned out to be 1.42 µM; in assay [27] it was 0.52 µM; in [28] it was 1.05 µM; in assay [29], 4.06 µM; in [4] (read-out: I / DIMATE), 3.9 µM; in assay [9] (read-out: I / DIMATE), 10.4 µM. Moreover, the GI50 in [10] (read-out: I / DIMATE) was 5 µM; in assay [12] (read-out: I / DIMATE), 7.9 µM; in assay [14] (read-out: I / DIMATE), more than 30 µM; in assay [15] (read-out: I / DIMATE) it was 3 µM.

A word on the Ki: it is a dissociation constant, usually derived from enzyme kinetics or from competition with a known ligand. High values mean a looser hold on the target, low ones a stronger hold on the target. ABD0171 came in with a Ki in assay [32] of 233 ± 16 µM.
